The values below come from patent publication US4510144A, “Methods of imparting immunomodulating activity with dihydrothiazolo purine derivatives” (Newport Pharmaceuticals International, priority 1982, dated 1985).

Molecules are shown by their SMILES.

The assay relates to antibody production to sheep red blood cells (SRBC). The assay is described as follows: antigen (SRBC) dependent antibody synthesis in vivo (IgM plaques). Also on record: species or system Balb/C mice. Particulars: for #Ig M plaques (x ± S.E.): saline control 21 ± 1.1; for % change from control, Ig M plaques: Table VIII; for % change from control, antibody response to SRBC: Table X, *P ≤ 0.001 where starred. On the procedure:
(3) Antigen (sheep red blood cell, SRBC) dependent antibody synthesis (in vivo)
There is set forth below the standard procedure which should be modified according to the solubility and other properties of the particular compound tested.
1. A solution containing 500 μg/ml NPT is prepared by adding a preweighed amount of the drup powder to sterile BPS (phosphate buffered saline) and sonicating the solution for 30 minutes.
1. NPT drug solution is made by dissolving 500 μg NPT per mil PBS.
1. A 1.4% suspension of agarose in PBS (7 g in 500 ml) is autoclaved for 15 min.
1. Mice are immunized as follows: sheep blood (sheep #23) is received weekly from Hyland labs. It is asceptically collected in two volumes of Alseviers to one volume of blood.
6. The cell count is determined and the stock solution is diluted to 4×10^7 cells/ml. This final suspension is used for immunization.
7. Each mouse is immunized by i.v. injection into the lateral tail vein (warmed in a 50° C. water bath for veinous dilation) with 0.1 ml SRBC (sheep red blood cell) suspensions; the final concentration of SRBC's is 4×10^6 per mouse.
1. Mice are treated by i.p. injection on days […], 1, 2, and 3. A syringe (1 cc) is fitted with a one-half inch, 26 gauge needle. The needle is introduced at a 45° angle along the right side of the linea alba. A 0.2 ml volume is given to both drug and control treated groups.
2. Drug groups are given 0.2 ml of a desired concentration NPT solution which, for a 20 g mouse, is […].
1. Spleens are removed asceptically and placed individually in Falcon #2025 tissue culture tubes containing 3 ml MEM. The tubes are then stored on ice.
2. Spleens are homogenized in the same tube with a teflon pestle attached to a G. K. Heller variable speed reversible motor connected with a G. K. Heller GT-21 motor controller setting #6.
6. The cell count is obtained and the stock suspension is diluted to 1×10^7 cells/ml. The Coulter counter threshhold is set at 10. Red cells are lysed with three drops of Zap isoton.
1. Thirty-five hundredths gram agarose and 0.53 grams MEM powder are placed into an Erlenmeyer flask. Fifty ml of distilled H2 O is then added to the flask.
1. Five ml sheep blood (same batch as used for immunization) is washed three times in PBS using an IEC Clinical Standard Centrifuge, speed #4 (2800 RPM) for 10 min.
1. Agar plates are removed from refrigerator and allowed to warm to room temperature. They are labeled in triplicate for each experimental group.
2. Agar-filled tubes are removed from the water bath. One-tenth of the 10% SRBC's and 0.1 ml spleen cell suspension are added to each agar tube. The tubes are agitated on a Vortex mixer.
3. The contents of the tubes are poured immediately into agar base plates and swirled until a smooth layer is formed. The plates are placed on a level surface until the agar solidifies.
4. The plates are incubated at 37° C. in a humidified atmosphere of 5% CO2 and 95% air for 90 min.
6. Plates are removed from incubator and 1 ml of the diluted complement is added to each plate.
7. Plates are then incubated another 30-45 minutes at 37° C. Plates are then removed from incubator and counted using oblique light.

On to `Oc1ncnc2c1nc1n2CCS1` [NPT 16416, 3-hydroxy-7,8-dihydrothiazolo-[3,2e]-purine], for which the “#Ig M plaques (x ± S.E.)” value (0.05 mg/kg i.p.) was 39 ± 3.34, the “#Ig M plaques (x ± S.E.)” value (0.5 mg/kg i.p.) came to 35 ± 2.06 and the “#Ig M plaques (x ± S.E.)” value (5.0 mg/kg i.p.) worked out at 9 ± 0.37. Moreover, the “effect on antibody production in vivo, in words” value (SRBC immunized mice) is “enhancement of production of specific antibodies in vivo”. Also, the “% change from control, Ig M plaques” value reads like this: (0.05 mg/kg i.p.) “+88%”; (0.5 mg/kg i.p.) “+66%”; (5.0 mg/kg i.p.) -58%. Besides, the “% change from control, antibody response to SRBC” value is, setting by setting: (0.5 mg/kg) “+66%”; (5.0 mg/kg, NPT 16485 N.S.) -80%. Where the note is “mice, 0.05 mg/kg”, the “enhancement of antibody production to SRBC” value was 88-226%.
